GI50 data for one molecule are collected here from patent US10201556B2, “Combination for use in treating diseases or conditions associated with melanoma, or treating diseases or conditions associated with activated B-raf pathway” (InteRNA Technologies B.V., priority 2012, dated 2019).

Assay [1] concerns M249-R4 melanoma cell line. The experiment in a line: Anti-proliferative effect of small molecules, MTS assay. It counts as cell-based. Conditions: M249-R4 (M249-AR4), in vitro acquired resistance, 72 hours. How it is done: (§1) The anti-proliferative effect of small molecules in melanoma cell lines was determined with V600E BRAF inhibitor, vemurafenib (PLX-4032, 51267, Selleck) and MEK inhibitor, selumetinib (AZD-6244, S1008, Selleck). For each cell line optimal growth conditions were determined prior to the experiment. Cells were plated in a 96-well plate at 3000 cells per well (100 uL) and were grown at 37 C, 5% CO2. Small molecule mix (50 uL per well) was made for each concentration in medium. Cells were treated in triplicate 24 hours after plating. After 72 hours medium was replaced and viability was measured with the MTS assay (Promega) according to manufacturer's instructions. Cell viability inhibition is normalized against loading control (0.1% DMSO) and GraphPad Prism was used to fit the curve and calculate GI50 values.

For another assay, the system named is M249 melanoma cell line. Described as above. In kind it is cell-based. Conditions: M249, 72 h, M249, vemurafenib sensitive. Here is the method: as §1
For assay [2], the system named is A375Hu melanoma cell line. Described as above. It counts as cell-based. Conditions: Homo sapiens, A-375, 72 h, A375Hu (A375), vemurafenib sensitive. Here is the method:
as §1

Assay [3] has as its system RPMI-7951 melanoma cell line. The description is as above. Conditions: Homo sapiens; RPMI-7951, intrinsic resistance; 72 hours, MTS. In kind it is cell-based. Here is the method: as §1
In a further assay the test system is A2058 melanoma cell line. The assay is described as above. Conditions: Homo sapiens, A2058, intrinsic resistance, 72 hours. In kind it is cell-based. How it is done: as §1
Assay [4] has as its system A375Hu-R1 (vemurafenib resistant clone of A375Hu). Described as above. It counts as cell-based. Conditions: Homo sapiens, A375Hu-R1 (A375-R), in vitro acquired resistance, 72 hours. Here is the method:
as §1
The A375Hu melanoma cell line was used to make a vemurafenib (PLX-4032) resistant sub line. A375Hu cells were plated at low density in 96-well plates and exposed to 1 uM PLX-4032. Cell growth was monitored until clonal growth was observed. Wells with clonal growth (approximately 5%) were replated in a 96-well plate and exposed to 1 uM PLX-4032. The 10 best growing clones were replated in 6-well plates in 1 uM PLX-4032 and the three best growing clones were used for further culturing. Clone number 1 (A375Hu-R1) grew best with 1 uM PLX-4032 and was chosen for additional experiments.

The test system of a further assay is M233 melanoma cell line. Conditions: M233; value marked with footnote 1) Atefi M. et al.; cited from earlier work.
In the next assay the test system is M376 melanoma cell line. Conditions: M376; value marked with footnote 1) Atefi M. et al.; cited from earlier work.
For assay [5], the system named is SKMEL-57 melanoma cell line. The experiment in a line: Anti-proliferative effect of small molecules, MTS assay. It counts as cell-based. Conditions: SKMEL-57, vemurafenib sensitive. Here is the method: as §1
A375 cells were obtained from the Hubrecht Institute (Utrecht, The Netherlands); SKMEL-28, A2058 and RPMI-7951 were from the ATCC; SKMEL-57 was a gift from Dr. Patricia Groenen (Radboud University Nijmegen Medical Centre, The Netherlands); for cell line characteristics of M249, M249-AR4, M233 and M376 see (Atefi et al. 2011). A375-R, with in vitro acquired resistance to vemurafenib, was established in our lab by clonal selection of cells continually exposed to 1 μM vemurafenib. A375, A375-R, SKMEL-28, A2058 and SKMEL-57 were grown in DMEM GlutaMAX™-I (Gibco®), all other cell lines in RPMI-1640 (Gibco®). Media was supplemented with 10% FBS (Sigma), and cells were maintained in a humidified 37° C. incubator (Thermo Scientific) with 5% CO2. Vemurafenib (PLX4032; Selleck Chemicals) was diluted in DMSO to a stock concentration of 10 mM.

On to `Cn1cnc2c(F)c(Nc3ccc(Br)cc3Cl)c(C(=O)NOCCO)cc21` [Selumetinib, 6-(4-bromo-2-chlorophenylamino)-7-fluoro-N-(2-hydroxyethoxy)-3-methyl-3H-benzo[d]imidazole-5-carboxamide], for which the GI50 was 2.91 µM in [1]; 0.1 µM with M249 melanoma cell line; 0.05 µM in assay [2]; over 10 µM in assay [3]; over 10 µM with A2058 melanoma cell line; over 10 µM in assay [4]. In addition, the results for the GI50 (with M233 melanoma cell line; in the assay on M376 melanoma cell line; in assay [5]) were over 10 µM, 1 µM and 0.7 µM, respectively.
